From US7482379B2, “Propenoyl hydrazides” (priority 2004, dated 2009)
Where two headings read alike, the source gives them in different places. Peptide text beside a SMILES is read from it. * marks the point of attachment. AFC = O=c1cc(C(F)(F)F)c2ccc(N*)cc2o1; Cbz = O=C(OCc1ccccc1)*

Legend:
Caspase-2 = target: T1, Caspase-2 (Homo sapiens, UniProt P42575); test: Caspase-2 progress curve inhibition assay; settings: for k2 Caspase-2: second-order rate constant, Cbz-VDVAD-AFC substrate, Pipes buffer pH 7.2
T1 sequence (P42575 170-333 limits assumed): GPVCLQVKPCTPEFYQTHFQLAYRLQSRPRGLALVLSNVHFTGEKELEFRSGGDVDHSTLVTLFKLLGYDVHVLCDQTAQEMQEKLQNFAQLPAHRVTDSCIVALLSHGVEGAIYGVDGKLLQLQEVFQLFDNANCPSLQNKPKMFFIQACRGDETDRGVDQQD
T1 sequence (P42575 348-452 limits assumed): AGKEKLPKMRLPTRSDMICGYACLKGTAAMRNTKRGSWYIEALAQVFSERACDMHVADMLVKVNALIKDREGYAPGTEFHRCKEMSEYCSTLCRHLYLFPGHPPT

Caspase-3 = target: T2, Caspase-3 (Homo sapiens, UniProt P42574); test: Caspase-3 progress curve inhibition assay; settings: for k2 Caspase-3: second-order rate constant, Ac-DEVD-AMC substrate, Pipes buffer pH 7.2
T2 sequence (P42574 29-175 limits assumed): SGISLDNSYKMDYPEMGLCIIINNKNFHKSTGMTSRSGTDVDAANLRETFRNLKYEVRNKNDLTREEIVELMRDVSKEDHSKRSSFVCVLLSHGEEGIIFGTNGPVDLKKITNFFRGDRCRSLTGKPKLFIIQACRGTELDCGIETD
T2 sequence (P42574 176-277 limits assumed): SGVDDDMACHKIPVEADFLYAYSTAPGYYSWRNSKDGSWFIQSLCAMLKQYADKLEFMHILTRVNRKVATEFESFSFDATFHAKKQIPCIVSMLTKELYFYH

Caspase-6 = target: T3, Caspase-6 (Homo sapiens, UniProt P55212); test: Caspase-6 progress curve inhibition assay; settings: for k2 Caspase-6: second-order rate constant, Ac-DEVD-AMC substrate, Pipes buffer pH 7.2
T3 sequence (P55212 24-179 limits assumed): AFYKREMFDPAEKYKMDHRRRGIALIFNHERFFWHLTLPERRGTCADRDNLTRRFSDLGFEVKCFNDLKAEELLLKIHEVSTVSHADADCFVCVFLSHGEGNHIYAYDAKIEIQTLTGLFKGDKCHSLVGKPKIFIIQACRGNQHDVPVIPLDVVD
T3 sequence (P55212 194-293 limits assumed): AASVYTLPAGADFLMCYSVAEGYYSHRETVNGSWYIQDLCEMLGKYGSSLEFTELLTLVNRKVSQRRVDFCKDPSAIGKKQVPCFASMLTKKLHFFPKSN

Caspase-7 = target: T4, Caspase-7 (Homo sapiens, UniProt P55210); test: Caspase-7 progress curve inhibition assay; settings: for k2 Caspase-7: second-order rate constant, Ac-DEVD-AMC substrate, Pipes buffer pH 7.2
T4 sequence (P55210 24-198 limits assumed): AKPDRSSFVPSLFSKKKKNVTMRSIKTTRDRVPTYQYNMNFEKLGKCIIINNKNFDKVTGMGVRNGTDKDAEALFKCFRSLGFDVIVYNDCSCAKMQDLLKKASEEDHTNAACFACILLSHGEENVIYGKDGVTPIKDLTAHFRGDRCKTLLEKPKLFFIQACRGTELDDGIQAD
T4 sequence (P55210 207-303 limits assumed): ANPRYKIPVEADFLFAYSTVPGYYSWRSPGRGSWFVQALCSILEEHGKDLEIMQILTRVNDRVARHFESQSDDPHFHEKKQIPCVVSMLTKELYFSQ

Caspase-8 = Caspase-8 (Homo sapiens, UniProt Q14790); test: Caspase-8 progress curve inhibition assay; settings: for k2 Caspase-8: second-order rate constant, Ac-DEVD-AMC substrate, Pipes buffer pH 7.2
Caspase-10 = target: T5, Caspase-10 (Homo sapiens, UniProt Q92851); test: Caspase-10 progress curve inhibition assay; settings: for k2 Caspase-10: second-order rate constant, Ac-DEVD-AMC substrate, Hepes/PEG buffer pH 7.0
T5 sequence (Q92851 220-415 limits assumed): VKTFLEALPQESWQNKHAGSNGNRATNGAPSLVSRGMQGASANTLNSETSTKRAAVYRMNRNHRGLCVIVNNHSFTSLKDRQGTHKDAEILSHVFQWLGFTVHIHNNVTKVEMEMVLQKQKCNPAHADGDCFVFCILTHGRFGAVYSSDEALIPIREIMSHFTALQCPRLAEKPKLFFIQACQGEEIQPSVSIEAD
T5 sequence (Q92851 416-521 limits assumed): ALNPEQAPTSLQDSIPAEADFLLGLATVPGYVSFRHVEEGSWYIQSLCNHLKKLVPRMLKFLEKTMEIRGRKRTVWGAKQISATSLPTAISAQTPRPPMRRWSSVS

S. mansoni legumain = S. mansoni legumain (Schistosoma mansoni, UniProt P09841, N192C); test: S. mansoni legumain (SmAE) inhibition assay; assay type: biochemical
Experimental: Studies with the propenoyl hydrazides using the schistosome legumain […], (Schistosoma mansoni asparaginyl endopeptidase) were also performed. […] The actual active site enzyme concentration is unknown. The lyophilized enzyme ([…]) was reconstituted in 1.5 mL 0.5 M sodium acetate, pH 4.5 containing 4 mM DTT, and left to stand at 37° C. for 3-4 hours to allow for auto-activation of the zymogen. In a black 96-well microtiter plate, 50 μL of activated enzyme was added to an equal volume of 0.1 M citrate-phosphate buffer pH 6.8 containing 4 mM DTT. Inhibitor stock solutions (20 mM) were prepared in DMSO. Serial dilutions (using water) of inhibitor were added (as 1 μL aliquots) to yield concentrations of between 2 and 0.00002 μM inhibitor. […] After incubating various inhibitor concentrations with enzyme, 100 μL of the same buffer containing 20 μM substrate (Cbz-Ala-Ala-Asn-AMC) was added to the wells and the reaction monitored at room temperature with linear kinetics up to 20 minutes. Inhibitors are tested in duplicate. A plot of the RFU/min versus the inhibitor concentration [μM] permitted calculation of an IC50 value and estimation of the kobs/[I].

Chain of Caspase-8 (Q14790 217-374 limits assumed): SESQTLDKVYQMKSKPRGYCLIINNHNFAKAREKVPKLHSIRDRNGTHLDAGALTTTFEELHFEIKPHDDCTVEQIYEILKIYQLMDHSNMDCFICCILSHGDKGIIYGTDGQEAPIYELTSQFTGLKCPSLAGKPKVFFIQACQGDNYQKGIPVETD
Chain of Caspase-8 (Q14790 385-479 limits assumed): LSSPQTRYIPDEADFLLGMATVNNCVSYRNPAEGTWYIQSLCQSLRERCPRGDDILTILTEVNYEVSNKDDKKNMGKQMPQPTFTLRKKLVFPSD
Chain of S. mansoni legumain (P09841 32-291 N192C): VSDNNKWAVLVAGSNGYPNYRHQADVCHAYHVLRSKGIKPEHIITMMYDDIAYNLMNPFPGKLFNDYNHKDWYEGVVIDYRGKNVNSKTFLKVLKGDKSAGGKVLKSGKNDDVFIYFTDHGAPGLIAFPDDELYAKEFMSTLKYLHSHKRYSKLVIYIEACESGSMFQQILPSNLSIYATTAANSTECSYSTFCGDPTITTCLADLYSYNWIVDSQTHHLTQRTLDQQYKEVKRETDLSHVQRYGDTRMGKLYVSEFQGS

Compound: CC(C)[C@H](NC(=O)[C@H](CCC(=O)O)NC(=O)[C@H](CC(=O)O)NC(=O)OCc1ccccc1)C(=O)NN(CC(=O)O)C(=O)/C=C/C(=O)c1ccccc1 (relative stereo) [Cbz-Asp-Glu-Val-AAsp-CH═CH—COPh, N^2—(N-Benzyloxycarbonylaspartylglutamylvalyl)-N^1-trans-(3-benzoylpropenoyl)-N^1-carboxymethylhydrazine]
- k2 Caspase-2 (Caspase-2): 165 M⁻¹ s⁻¹
- k2 Caspase-3 (Caspase-3): 122,000 M^−1s^−1
- k2 Caspase-6 (Caspase-6): 1,800 M^−1s^−1
- k2 Caspase-7 (Caspase-7): 10,800 M^−1s^−1
- k2 Caspase-8 (Caspase-8): 9,720 M^−1s^−1
- k2 Caspase-10 (Caspase-10): 930 M⁻¹ s⁻¹

Compound: CC(C)C[C@H](NC(=O)OCc1ccccc1)C(=O)N[C@@H](CCC(=O)O)C(=O)N[C@H](C(=O)NN(CC(=O)O)C(=O)/C=C/C(=O)OCc1ccccc1)[C@@H](C)O (relative stereo) [Cbz-Leu-Glu-Thr-AAsp-CH═CH—COOCH2Ph, N^1-trans-(3-Benzyloxycarbonylpropenoyl)-N^2—(N-benzyloxycarbonylleucylglutamylthreonyl)-N^1-carboxymethylhydrazine]
- k2 Caspase-2 (Caspase-2): 480 M⁻¹ s⁻¹
- k2 Caspase-3 (Caspase-3): 4,600 M^−1s^−1
- k2 Caspase-6 (Caspase-6): 47,600 M^−1s^−1
- k2 Caspase-7 (Caspase-7): 1,570 M^−1s^−1
- k2 Caspase-8 (Caspase-8): 98,400 M^−1s^−1
- k2 Caspase-10 (Caspase-10): 18,900 M^−1s^−1

Compound: CC(=O)N[C@@H](CC(=O)O)C(=O)N[C@@H](CCC(=O)O)C(=O)N[C@H](C(=O)N[C@@H](CC(=O)O)C(=O)Nc1ccc2c(C)cc(=O)oc2c1)C(C)C [Ac-DEVD-AMC, reference compound]
- Km (Caspase-3; read-out: KM with caspase-3, substrate Ac-DEVD-AMC): 9.7 µM
- Km (Caspase-6; read-out: KM with caspase-6, substrate Ac-DEVD-AMC): 236 µM
- Km (Caspase-7; read-out: KM with caspase-7, substrate Ac-DEVD-AMC): 23 µM
- Km (Caspase-8; read-out: KM with caspase-8, substrate Ac-DEVD-AMC): 6.79 µM
- Km (Caspase-10; read-out: KM with caspase-10, substrate Ac-DEVD-AMC): 20.2 µM

Compound: CCOC(=O)/C=C/C(=O)N(CC(=O)O)NC(=O)[C@@H](NC(=O)[C@H](CCC(=O)O)NC(=O)OCc1ccccc1)C(C)C (relative stereo) [Cbz-Glu-Val-AAsp-CH═CH—COOEt, N^2—(N-Benzyloxycarbonylglutamylvalyl)-N^1-carboxymethyl-N^1-trans-(3-ethoxycarbonylpropenoyl)hydrazine]
- k2 Caspase-2 (Caspase-2): 90 M⁻¹ s⁻¹
- k2 Caspase-3 (Caspase-3): 38,600 M^−1s^−1
- k2 Caspase-6 (Caspase-6): 3,540 M^−1s^−1
- k2 Caspase-7 (Caspase-7): 52,400 M^−1s^−1
- k2 Caspase-10 (Caspase-10): 8,940 M^−1s^−1

Compound: CCOC(=O)/C=C\C(=O)N(CC(=O)O)NC(=O)[C@@H](NC(=O)[C@H](CCC(=O)O)NC(=O)[C@H](CC(=O)O)NC(=O)OCc1ccccc1)C(C)C (relative stereo) [Cbz-Asp-Glu-Val-AAsp-CH═CH—COOEt (cis), N^2—(N-Benzyloxycarbonylaspartylglutamylvalyl)-N^1-carboxylmethyl-N^1-cis-(3-ethoxycarbonylpropenoyl)hydrazine]
- k2 Caspase-2 (Caspase-2): 26,200 ± ^ M^−1s^−1
- k2 Caspase-3 (Caspase-3): 1,060,000 M^−1s^−1
- k2 Caspase-6 (Caspase-6): 11,000 M^−1s^−1
- k2 Caspase-7 (Caspase-7): 139,000 M^−1s^−1
- k2 Caspase-8 (Caspase-8): 181,000 M^−1s^−1
- k2 Caspase-10 (Caspase-10): 13,500 M^−1s^−1

Compound: CCOC(=O)/C=C/C(=O)N(CC(=O)O)NC(=O)[C@@H](NC(=O)[C@H](CCC(=O)O)NC(=O)[C@@H](NC(=O)OCc1ccccc1)[C@@H](C)CC)[C@@H](C)O (relative stereo) [Cbz-Ile-Glu-Thr-AAsp-CH═CH—COOEt, N^2—(N-Benzyloxycarbonylisoleucylglutamylthreonyl)-N^1-carboxymethyl-N^1-trans-(3-ethoxycarbonylpropenoyl)hydrazine]
- k2 Caspase-2 (Caspase-2): 300 M⁻¹ s⁻¹
- k2 Caspase-3 (Caspase-3): 6,740 M^−1s^−1
- k2 Caspase-6 (Caspase-6): 88,700 M^−1s^−1
- k2 Caspase-7 (Caspase-7): 530 M⁻¹ s⁻¹
- k2 Caspase-8 (Caspase-8): 56,500 M^−1s^−1
- k2 Caspase-10 (Caspase-10): 6,900 M^−1s^−1

Compound: CC(NC(=O)C(NC(=O)C(CC(=O)O)NC(=O)C(NC(=O)OCc1ccccc1)C(C)C)C(C)C)C(=O)NC(CC(=O)O)C(=O)Nc1ccc2c(C(F)(F)F)cc(=O)oc2c1 (centres unmarked) [Z-VDVAD-AFC, reference compound] (Cbz-VDVAD-{AFC}; configuration not given here)
- Km (Caspase-2; read-out: KM with caspase-2, substrate Z-VDVAD-AFC): 80.5 µM

Compound: CC[C@H](C)[C@H](NC(=O)OCc1ccccc1)C(=O)N[C@@H](CCC(=O)O)C(=O)N[C@H](C(=O)NN(CC(=O)O)C(=O)/C=C/C(=O)OCc1ccccc1)[C@@H](C)O (relative stereo) [Cbz-Ile-Glu-Thr-AAsp-CH═CH—COOCH2Ph, N^1-trans-(3-Benzyloxycarbonylpropenoyl)-N^2—(N-benzyloxycarbonylisoleucylglutamylthreonyl)-N^1-carboxylmethylhydrazine]
- k2 Caspase-2 (Caspase-2): 110 M⁻¹ s⁻¹
- k2 Caspase-3 (Caspase-3): 2,300 M^−1s^−1
- k2 Caspase-6 (Caspase-6): 23,350 M^−1s^−1
- k2 Caspase-7 (Caspase-7): 660 M⁻¹ s⁻¹
- k2 Caspase-8 (Caspase-8): 148,400 M^−1s^−1
- k2 Caspase-10 (Caspase-10): 15,200 M^−1s^−1

Compound: CC(C)[C@H](NC(=O)[C@H](CCC(=O)O)NC(=O)[C@H](CC(=O)O)NC(=O)OCc1ccccc1)C(=O)NN(CC(=O)O)C(=O)/C=C/C(=O)OCc1ccccc1 (relative stereo) [Cbz-Asp-Glu-Val-AAsp-CH═CH—COOCH2Ph, N^1-trans-(3-Benzyloxycarbonylpropenoyl)-N^2—(N-benzyloxycarbonylaspartylglutamylvalyl)-N^1-carboxymethylhydrazine]
- k2 Caspase-3 (Caspase-3): 1,700,000 M^−1s^−1
- k2 Caspase-6 (Caspase-6): 8,470 M^−1s^−1
- k2 Caspase-7 (Caspase-7): 114,000 M^−1s^−1
- k2 Caspase-8 (Caspase-8): 121,000 M^−1s^−1
- k2 Caspase-10 (Caspase-10): 28,300 M^−1s^−1

Compound: C[C@H](NC(=O)OCc1ccccc1)C(=O)N[C@@H](C)C(=O)NN(CC(N)=O)C(=O)/C=C/C(=O)N(Cc1ccccc1)Cc1ccc2ccccc2c1
- IC50 (S. mansoni legumain): 70 nM
- kinact/KI (S. mansoni legumain; read-out: kobs/[I]): 6100 M⁻¹ s⁻¹

Compound: C[C@H](NC(=O)OCc1ccccc1)C(=O)N[C@@H](C)C(=O)NN(CC(N)=O)C(=O)/C=C/C(=O)c1ccccc1 [Cbz-Ala-Ala-AAsn-CH═CH—COPh, trans-N^2—(N-Benzyloxycarbonylalanylalanyl)-N^1-carbamoyImethyl-N^1-trans-(3-benzoylpropenoyl)hydrazine]
- IC50 (S. mansoni legumain; S. mansoni legumain, 20 min preincubation, Cbz-Ala-Ala-Asn-AMC substrate): does not inhibit
- IC50 (S. mansoni legumain; S. mansoni legumain, 20 min preincubation, Cbz-Ala-Ala-Asn-AMC substrate, listed as —COPh): > 2000 nM
